We go through two compounds from US10399994B2, “Compounds and methods for preventing or treating sensory hair cell death” (UNIVERSITY OF WASHINGTON, priority 2015, dated 2019).

The subject of series [1] is rats. The series is described as follows: Auditory Brainstem Response (ABR) Assay. It counts as in vivo. The note with it: Day 24 vs Day 0, FIG. 2. As to the method:
Chronic treatment of rats with aminoglycosides (AGs) such as kanamycin or amikacin results in an elevation of ABR thresholds, typically most pronounced at higher frequencies. For rats, hearing is tested at a range of frequencies to determine the intensity of sound (measured in decibels) necessary to evoke a response. As hearing loss becomes more severe, a higher intensity is needed to evoke a response. Each rat serves as its own control; hearing thresholds are determined at each frequency prior to any treatment and then at 2 weeks after a 10-day course of AG treatment (or control drug exposures).
The ABR assay measures short latency field potentials recorded from the scalp of animals that were sedated or noninvasively immobilized. […] For each animal, hearing thresholds, wave 1 latencies and input-output functions for stimulus frequencies at 2, 4, 8, 16 and 32 kHz were measured prior to any treatment to determine the initial sensitivity and dynamic range of hearing, and then repeated at the end of drug treatment and at the end of the experiment (2-weeks after dosing). […]
ABR records were evaluated by a “blinded”, trained experimenter. Hearing loss (Threshold Shift) was determined by subtracting the threshold during pre-treatment (Day 0) from the final ABR threshold (Day 24; two weeks following treatment). […]

For series [2], the system named is kidney. Description: Effect of Amikacin and Compound 9 on Kidney Function. It counts as in vivo, Fischer 344 rats. The note with it: for creatinine clearance (CrCl) post-treatment compared to pretreatment: FIG. 3; for kidney histopathology damage score (0-4): FIG. 4. As to the method: The study consisted of three groups of Fischer 344 rats aged 6 weeks and weighing approximately 200 g at the start of the study. Group 1 consisted of six rats, randomly selected to receive amikacin only, Group 2 consisted of six rats chosen randomly to receive amikacin and compound 9, and Group 3 consisted of three rats, 2 rats given compound 9 and 1 rat given only 0.5% Methylcellulose, the diluent for compound 9. All animals receiving amikacin were given 320 mg/kg subcutaneously (SQ) from a freshly prepared solution of amikacin of 40 mg/mL. The compound 9 formualtion was prepared by weighing 13.08 mg of compound 9 dissolved in 12 mL of 0.5% MC in saline with vortexing, sonification and homogenization to obtain a solution with concentration at 12 mg/12 mL=1 mg/mL, dose volume is 5 mL/kg (5 mg/kg). The compound 9 solution was given by oral gavage at a dose of 5 mg/kg.
One day prior to the onset of dosing, blood was drawn from all rats for serum analysis and all rats were put into metabolic cages for 24 hour urine collection and analysis. All rats were returned to normal cages and allowed to eat and drink ad lib. All rats received their assigned treatments for 10 days and then were returned to metabolic cages for the 10th day. Three rats were randomly chosen from each of Group 1 and Group 2 to have additional blood draws at 30 min, 60 mn, 2 hr, 4 hr, 8 hr and 24 hr after the 10th dose for amikacin and compound 9 PK analysis. All rats had blood drawn for serum analysis at the end of day 10 and the 24 hour urine collected from day 10. After the final blood draw, all rats were euthanized and their kidneys removed and prepared for histopathology testing. The left kidneys were longitudinally sectioned, the right kidneys were cross sectioned. The pathologist read the slides, blinded to the group from which they were assigned. They graded viewed five different locations on each slide and gave each location a score for degree of damage: no damage (0 score); minimal (1-10%, 1 score), mild (11-20%, 2 score), moderate (21-50%, 3 score), or marked (51-100%, 4 score).
Previous studies have shown that aminoglycoside renal toxicity primarily affects the proximal and distal tubules of the kidney, eventually causing […] of the epithelial cells. The resulting damage causes, in part, decreased glomerular filtration rate (GFR) which may be a result of the tubular damage or partly through other mechanisms. The GFR was approximated using the creatinine clearance. […] The one-sided two-sample t-test p-value for the comparison of the amikacin only (Group 1) and amikacin+compound 9 (Group 2) are shown in a box between the two columns.

In series [3] the test system is hair cells. The series is described as follows: Neomycin Hair Cell Toxicity Assay in Zebrafish. In kind it is in vivo. On the procedure:
Zebrafish are bred and newly fertilized embryos are collected the week prior and raised at 28.5° C. in petri dishes containing embryo medium. Newly hatched free-swimming larvae are fed paramecium and dry fish food at 4 days post fertilization (dpf) with lights on. For treatment, fish 5-7 dpf are transferred to cell culture baskets and place within a well of a 6-well plate containing 7 milliliters of 1× embryo medium. Typically, tests are done with ten fish per basket but work well with up to 50 fish. All treatment and wash volumes are 7 milliliters.
1. Fish are pre-treated with test compound for 1 hour. Concentrations between 0.010 to 25 micromolar of test compound are tested.
2. Treat with 200 micromolar neomycin (neomycin sulfate, Sigma, St. Louis, Mo., catalog #N1142)+ test compound for 30 minutes.
3. […]
5. […] The DASPEI staining of ten neuromasts (SO1, SO2, IO1, IO2, IO3, IO4, M2, MI1, MI2 and O2) on one side of an animal are evaluated. Each neuromast is scored for presence of DASPEI staining (score=2), reduced DASPEI staining (score=1) or absence of DASPEI staining (score=0). […] Average scores and standard deviations are calculated for animals in each treatment group. Scores are normalized to control group (vehicle only, no drug, no neomycin) and expressed as % hair cell survival. […] If less than 50% hair cells survive, the HC50 is not determined. […]

Series [4] concerns hair cells. Description: Cisplatin Hair Cell Toxicity Assay in Zebrafish. It counts as in vivo. The note with it: cisplatin 50 μM for 24 hrs. On the procedure: Zebrafish are bred and newly fertilized embryos are collected the week prior and raised at 28.5° C. in petri dishes containing embryo medium. Newly hatched free-swimming larvae are fed paramecium and dry fish food at 4 days post fertilization (dpf) with lights on. For treatment, fish 5-7 dpf are transferred to cell culture baskets and place within a well of a 6-well plate containing 7 milliliters of 1× embryo medium. Typically, tests are done with ten fish per basket but work well with up to 50 fish. All treatment and wash volumes are 7 milliliters. • 1. In a 48-well plate, place 10-12 fish/well in 300 μl of EM. • 2. Add ORC-13661 and vehicle control to each well at concentrations listed below. Swirl and place in incubator for 15 min. ORC-13661 concentrations tested: 0.103 μM, 0.308 μM, 0.925 μM, 2.78 μM, 8.33 μM. • 3. Add cisplatin 50 μM to pretreated and control wells. Swirl and place in incubator for 24 hrs. • 4. Place 1-2 drops of MS222 in each well to anesthetize fish, then aspirate treated EM. • 5. Add 300 μl/well of 4% paraformaldehyde to fix fish. Fix overnight at 4° C. or 2 hrs at room temperature (RT). • 6. Rinse wells with PBS for 15 min each 3 times. • 7. Add 300 μl/well of blocking solution for 1 hr at RT. • 8. Incubate with 300 μl/well of 1:400 mouse anti-Parvalbumin antibody overnight at 4° C. • 9. Rinse wells with PBS-T for 15 min each 3 times. • 10. […]

“And” between values parts separate entries of the source, which are not always exact repeats. Identical values can stand only once. Counter-ions that a name gives are not always drawn. Bounds are passed on as bounds.

In the case of `NCC[C@H](O)C(=O)N[C@@H]1C[C@H](N)[C@@H](O[C@H]2O[C@H](CN)[C@@H](O)[C@H](O)[C@H]2O)[C@H](O)[C@H]1O[C@H]1O[C@H](CO)[C@@H](O)[C@H](N)[C@H]1O` [amikacin, reference compound], in series [1] (Amikacin alone SC 320 mg/kg/day for 10 days), the “Hearing loss (ABR Threshold Shift)” value is “hearing loss”. Further, the “creatinine clearance (CrCl) post-treatment compared to pretreatment” value in series [2] (Group 1: amikacin only 320 mg/kg SQ for 10 days) is “significantly different from baseline”. Further, in series [2] (amikacin only rats, longitudinal and cross sectioning of the kidney), the “kidney histopathology damage score (0-4)” value is on record as 3.9.

In the case of `CN1[C@H]2CC[C@@H]1c1c(sc(NC(=O)Nc3ccc(Cl)cc3)c1C(N)=O)C2` [Compound 9, (4R,7S)-2-(3-(4-chlorophenyl)ureido)-9-methyl-5,6,7,8-tetrahydro-4H-4,7-epiminocyclohepta[b]thiophene-3-carboxamide hydrochloride], the EC50 in series [3] (Danio rerio, concentration that would produce 50% hair cell survival, 1 hour pre-treatment, then 200 micromolar neomycin + test compound for 30 minutes, read-out: HC50 (the source's name)) was < 1000 nM; in series [4] (Danio rerio, 15 min pretreatment, read-out: HC50 (the source's name)) it was < 1000 nM. Besides, the “Max HC Protection” value in series [3] (at 2.6 μM, 200 micromolar neomycin, % hair cell survival normalized to control) is on record as 96% protection at 2.6 μM; in series [4] (at 8.33 μM, hair cell counts as % control), 90% protection at 8.33 μM. In addition, the “Hearing loss (ABR Threshold Shift), high frequency” value in series [1] (Amikacin SC 320 mg/kg/day + Compound 9 PO 5 mg/kg/day for 10 days) is reported as “robust protection”. Moreover, the “creatinine clearance (CrCl) post-treatment compared to pretreatment” value in series [2] (Group 2: amikacin 320 mg/kg SQ + compound 9 5 mg/kg oral gavage for 10 days) is given as “significantly different from baseline”. The “kidney histopathology damage score (0-4)” value in series [2] (amikacin + compound 9 treated rats, longitudinal and cross sectioning (values not assigned to section in text), vs amikacin only p<0.005, hydrochloride) was 3.6 and 3.1.
